PubChem BioAssay (NCI)
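Protocol summary: plate cells (96-well), add compound at 5 concentrations, incubate 48 h, interpolate endpoints linearly. Abbreviation: GI50, concentration required for 50% inhibition of growth. TGI denotes the concentration required for complete inhibition of growth.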

Assays:
Test in all cases: DTP human tumour cell line panel, 48 h
[1] = tested on: T-47D breast
[2] = tested on: ACHN renal
[3] = tested on: SN12C renal
[4] = tested on: HL-60(TB) leukemia
[5] = tested on: SK-MEL-5 melanoma
[6] = tested on: A498 renal
[7] = tested on: UACC-257 melanoma
[8] = tested on: OVCAR-5 ovarian
[9] = tested on: MOLT-4 leukemia
[10] = tested on: MDA-MB-231 breast
[11] = tested on: HCC-2998 colon
[12] = tested on: OVCAR-8 ovarian
[13] = tested on: IGROV1 ovarian
[14] = tested on: HCT-15 colon
[15] = tested on: UO-31 renal
[16] = tested on: NCI-H522 lung
[17] = tested on: COLO 205 colon
[18] = tested on: NCI-H226 lung
[19] = tested on: HT29 colon
[20] = tested on: LOX IMVI melanoma
[21] = tested on: CCRF-CEM leukemia
[22] = tested on: NCI/ADR-RES ovarian
[23] = tested on: CAKI-1 renal
[24] = tested on: MDA-MB-435
[25] = tested on: MCF7 breast
[26] = tested on: SK-OV-3 ovarian
[27] = tested on: HS 578T breast
[28] = tested on: EKVX NSCLC
[29] = tested on: SW-620 colon
[30] = tested on: HOP-62 NSCLC
[31] = tested on: HCT-116 colon
[32] = tested on: KM12 colon
[33] = tested on: SF-268 CNS
[34] = tested on: SK-MEL-28 melanoma
[35] = tested on: HOP-92 NSCLC
[36] = tested on: 786-0 renal
[37] = tested on: A549 NSCLC
[38] = tested on: M14 melanoma
[39] = tested on: OVCAR-4 ovarian
[40] = tested on: SF-539 CNS
[41] = tested on: NCI-H460 lung
[42] = tested on: SK-MEL-2 melanoma
[43] = tested on: U251 CNS
[44] = tested on: MALME-3M melanoma
[45] = tested on: PC-3 prostate
[46] = tested on: NCI-H23 lung
[47] = tested on: TK-10 renal
[48] = tested on: UACC-62 melanoma
[49] = tested on: DU-145 prostate
[50] = tested on: SNB-75 CNS
[51] = tested on: SNB-19 CNS
[52] = tested on: SF-295 CNS
[53] = tested on: BT-549 breast
[54] = tested on: RXF 393 renal

CCCCCCNC(=O)Oc1ccc(/C(=C(/C)c2ccc(Cl)cc2)c2ccc(OCCN3CCCC3)cc2)cc1
GI50 [1]: 1310 nM | TGI [1]: 2880 nM | GI50 [2]: 1710 nM | TGI [2]: 3080 nM | GI50 [3]: 1730 nM | TGI [3]: 3200 nM | GI50 [4]: 1630 nM | TGI [4]: 3740 nM | GI50 [5]: 1720 nM | TGI [5]: 3150 nM | GI50 [6]: 3930 nM | TGI [6]: 17000 nM | GI50 [7]: 1740 nM | TGI [7]: 3240 nM | GI50 [8]: 2730 nM | TGI [8]: 10100 nM | GI50 [9]: 1730 nM | TGI [9]: 3970 nM | GI50 [10]: 1730 nM | TGI [10]: 3220 nM | GI50 [11]: 1650 nM | TGI [11]: 3050 nM | GI50 [12]: 1720 nM | TGI [12]: 3360 nM | GI50 [13]: 1740 nM | TGI [13]: 3280 nM | GI50 [14]: 1500 nM | TGI [14]: 3000 nM | GI50 [15]: 1240 nM | TGI [15]: 2520 nM | GI50 [16]: 1780 nM | TGI [16]: 3370 nM | GI50 [17]: 1860 nM | TGI [17]: 3360 nM | GI50 [18]: 2020 nM | TGI [18]: 4470 nM | GI50 [19]: 1620 nM | TGI [19]: 3190 nM | GI50 [20]: 1590 nM | TGI [20]: 2950 nM | GI50 [21]: 1780 nM | TGI [21]: 4980 nM | GI50 [22]: 1680 nM | TGI [22]: 3300 nM | GI50 [23]: 1480 nM | TGI [23]: 2820 nM | GI50 [24]: 1790 nM | TGI [24]: 3250 nM | GI50 [25]: 52.5 nM | TGI [25]: 1970 nM | GI50 [26]: 1630 nM | TGI [26]: 3010 nM | GI50 [27]: 1660 nM | TGI [27]: 3590 nM | GI50 [28]: 2180 nM | TGI [28]: 6120 nM | GI50 [29]: 1670 nM | TGI [29]: 3130 nM | GI50 [30]: 1550 nM | TGI [30]: 2950 nM | GI50 [31]: 1510 nM | TGI [31]: 3100 nM | GI50 [32]: 1980 nM | TGI [32]: 3740 nM | GI50 [33]: 1770 nM | TGI [33]: 3720 nM | GI50 [34]: 1720 nM | TGI [34]: 3160 nM | GI50 [35]: 1160 nM | TGI [35]: 2420 nM | GI50 [36]: 1780 nM | TGI [36]: 3290 nM | GI50 [37]: 1630 nM | TGI [37]: 3070 nM | GI50 [38]: 1720 nM | TGI [38]: 3180 nM | GI50 [39]: 1840 nM | TGI [39]: 3750 nM | GI50 [40]: 1710 nM | TGI [40]: 3120 nM | GI50 [41]: 1760 nM | TGI [41]: 3200 nM | GI50 [42]: 1890 nM | TGI [42]: 3510 nM | GI50 [43]: 1540 nM | TGI [43]: 2930 nM | GI50 [44]: 1710 nM | TGI [44]: 3240 nM | GI50 [45]: 1520 nM | TGI [45]: 2950 nM | GI50 [46]: 1780 nM | TGI [46]: 3310 nM | GI50 [47]: 1620 nM | TGI [47]: 3140 nM | GI50 [48]: 1750 nM | TGI [48]: 3220 nM | GI50 [49]: 1920 nM | TGI [49]: 3460 nM | GI50 [50]: 1790 nM | TGI [50]: 8970 nM | GI50 [51]: 1850 nM | TGI [51]: 3590 nM | GI50 [52]: 1730 nM | TGI [52]: 3170 nM | GI50 [53]: 1700 nM | TGI [53]: 3200 nM | GI50 [54]: 1700 nM | TGI [54]: 3260 nM
